Results published in ChEMBL document CHEMBL1201862, “PubChem BioAssay data set” (2004).
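The compound was tested at five concentrations on cells cultured in 96-well plates, with a 48-hour exposure period. The concentration for 50% growth inhibition is given as GI50.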 The source made the active and inactive calls. No stated cut-off is given here; in the data, active = GI50 up to about 1.1 µM and inactive = higher.

Assays:
Assay in all cases: inhibition of tumour cell growth, NCI panel, 48 h
UACC-62 = system: UACC-62
NCI-H23 = system: NCI-H23
TK-10 = system: TK-10
M19-MEL = system: M19-MEL
RXF 393 = system: RXF 393
SK-MEL-2 = system: SK-MEL-2
OVCAR-4 = system: OVCAR-4
U-251 = system: U-251
RPMI-8226 = system: RPMI-8226
NCI-H226 = system: NCI-H226
HT-29 = system: HT-29
SK-MEL-5 = system: SK-MEL-5
OVCAR-8 = system: OVCAR-8
SNB-19 = system: SNB-19
SF-539 = system: SF-539
HOP-92 = system: HOP-92
A549 = system: A549
NCI-H522 = system: NCI-H522
OVCAR-5 = system: OVCAR-5
MOLT-4 = system: MOLT-4
SNB-75 = system: SNB-75
KM-20L2 = system: KM-20L2
COLO 205 = system: COLO 205
UACC-257 = system: UACC-257
UO-31 = system: UO-31
DMS-273 = system: DMS-273
SNB-78 = system: SNB-78
HCT-15 = system: HCT-15
EKVX = system: EKVX
Malme-3M = system: Malme-3M
SF-268 = system: SF-268
SK-MEL-28 = system: SK-MEL-28
CAKI-1 = system: CAKI-1
786-0 = system: 786-0
IGROV-1 = system: IGROV-1
OVCAR-3 = system: OVCAR-3
SW-620 = system: SW-620
SK-OV-3 = system: SK-OV-3
KM12 = system: KM12
SR = system: SR
HCT-116 = system: HCT-116
K562 = system: K562
SF-295 = system: SF-295
LXFL 529 = system: LXFL 529
SN12C = system: SN12C
HCC 2998 = system: HCC 2998
BT-549 = system: BT-549
T47D = system: T47D
DU-145 = system: DU-145
Hs-578T = system: Hs-578T
MCF7 = system: MCF7
HL-60 = system: HL-60
PC-3 = system: PC-3
CCRF-CEM = system: CCRF-CEM
HOP-62 = system: HOP-62
DLD-1 = system: DLD-1
A498 = system: A498
M14 = system: M14
MDA-MB-435 = system: MDA-MB-435
DMS-114 = system: DMS-114
MDA-MB-231 = system: MDA-MB-231
ACHN = system: ACHN
MDA-N = system: MDA-N
NCI/ADR-RES = system: NCI/ADR-RES

CC1(C)CCC(=O)c2c(O)ccc(O)c21
GI50 (UACC-62): 66.8 µM (inactive)
GI50 (NCI-H23): > 100 µM (inactive)
GI50 (TK-10): > 100 µM (inactive)
GI50 (M19-MEL): > 100 µM (inactive)
GI50 (RXF 393): 18.4 µM (inactive)
GI50 (SK-MEL-2): 86.5 µM (inactive)
GI50 (OVCAR-4): > 100 µM (inactive)
GI50 (U-251): > 100 µM (inactive)
GI50 (RPMI-8226): 55.3 µM (inactive)
GI50 (NCI-H226): > 100 µM (inactive)
GI50 (HT-29): 30.1 µM (inactive)
GI50 (SK-MEL-5): > 100 µM (inactive)
GI50 (OVCAR-8): 91.8 µM (inactive)
GI50 (SNB-19): > 100 µM (inactive)
GI50 (SF-539): 77.4 µM (inactive)
GI50 (HOP-92): 15.4 µM (inactive)
GI50 (A549): > 100 µM (inactive)
GI50 (NCI-H522): 55.8 µM (inactive)
GI50 (OVCAR-5): > 100 µM (inactive)
GI50 (MOLT-4): 41.7 µM (inactive)
GI50 (SNB-75): 23.1 µM (inactive)
GI50 (KM-20L2): 83.4 µM (inactive)
GI50 (COLO 205): > 100 µM (inactive)
GI50 (UACC-257): 25.1 µM (inactive)
GI50 (UO-31): > 100 µM (inactive)
GI50 (DMS-273): > 100 µM (inactive)
GI50 (SNB-78): > 100 µM (inactive)
GI50 (HCT-15): 83.9 µM
GI50 (EKVX): > 100 µM (inactive)
GI50 (Malme-3M): > 100 µM (inactive)
GI50 (SF-268): > 100 µM (inactive)
GI50 (SK-MEL-28): 39.8 µM (inactive)
GI50 (CAKI-1): 71.8 µM (inactive)
GI50 (786-0): > 100 µM (inactive)
GI50 (IGROV-1): > 100 µM (inactive)
GI50 (OVCAR-3): > 100 µM (inactive)
GI50 (SW-620): 48.4 µM (inactive)
GI50 (SK-OV-3): > 100 µM (inactive)
GI50 (KM12): 83.9 µM (inactive)
GI50 (SR): > 10 µM (inactive)
GI50 (HCT-116): 51.9 µM (inactive)
GI50 (K562): 26.1 µM (inactive)
GI50 (SF-295): > 100 µM (inactive)
GI50 (LXFL 529): 42.8 µM (inactive)
GI50 (SN12C): > 100 µM (inactive)
GI50 (HCC 2998): > 100 µM (inactive)

COc1ccc(/C=C\c2cc(OC)c(OC)c(OC)c2)cc1O [COMBRETASTATIN A4]
GI50 (TK-10): 0.204 µM (active)
GI50 (BT-549): > 10 µM (inactive)
GI50 (HT-29): 1.72 µM (inactive)
GI50 (OVCAR-5): 0.34 µM (active)
GI50 (KM-20L2): 1.61 µM (inactive)
GI50 (T47D): 41 µM (inactive)
GI50 (EKVX): 1.22 µM (inactive)
GI50 (DU-145): 0.01 µM (active)
GI50 (Hs-578T): 0.583 µM (active)

Cc1[nH]c(=O)[nH]c(=O)c1N(CCF)CCCl [FLUORODOPAN]
GI50 (UACC-62): 283 µM (inactive)
GI50 (NCI-H23): 348 µM (inactive)
GI50 (TK-10): 495 µM (inactive)
GI50 (MCF7): 256 µM (inactive)
GI50 (BT-549): 344 µM (inactive)
GI50 (HL-60): 70.8 µM (inactive)
GI50 (RXF 393): 219 µM (inactive)
GI50 (SK-MEL-2): 432 µM (inactive)
GI50 (OVCAR-4): 353 µM (inactive)
GI50 (U-251): 369 µM (inactive)
GI50 (PC-3): 363 µM (inactive)
GI50 (NCI-H226): 560 µM (inactive)
GI50 (CCRF-CEM): 57.4 µM (inactive)
GI50 (HT-29): 442 µM (inactive)
GI50 (SK-MEL-5): 196 µM (inactive)
GI50 (HOP-62): 318 µM (inactive)
GI50 (DLD-1): 384 µM (inactive)
GI50 (SNB-19): 316 µM (inactive)
GI50 (SF-539): 199 µM (inactive)
GI50 (A498): 418 µM (inactive)
GI50 (HOP-92): 109 µM (inactive)
GI50 (A549): 265 µM (inactive)
GI50 (NCI-H522): 143 µM (inactive)
GI50 (OVCAR-5): 483 µM (inactive)
GI50 (KM-20L2): 359 µM (inactive)
GI50 (COLO 205): 394 µM (inactive)
GI50 (UACC-257): 443 µM (inactive)
GI50 (T47D): 292 µM (inactive)
GI50 (M14): 381 µM (inactive)
GI50 (MDA-MB-435): 419 µM (inactive)
GI50 (SNB-78): 322 µM (inactive)
GI50 (Malme-3M): 349 µM (inactive)
GI50 (SF-268): 290 µM (inactive)
GI50 (DMS-114): 193 µM (inactive)
GI50 (MDA-MB-231): 362 µM (inactive)
GI50 (ACHN): 190 µM (inactive)
GI50 (SK-MEL-28): 420 µM (inactive)
GI50 (CAKI-1): 181 µM (inactive)
GI50 (MDA-N): 409 µM (inactive)
GI50 (DU-145): 582 µM (inactive)
GI50 (786-0): 451 µM (inactive)
GI50 (IGROV-1): 441 µM (inactive)
GI50 (OVCAR-3): 442 µM (inactive)
GI50 (Hs-578T): 635 µM (inactive)
GI50 (SK-OV-3): 536 µM (inactive)
GI50 (KM12): 429 µM (inactive)
GI50 (SR): 79.6 µM (inactive)
GI50 (HCT-116): 439 µM (inactive)
GI50 (K562): 244 µM (inactive)
GI50 (SF-295): 284 µM (inactive)
GI50 (NCI/ADR-RES): 240 µM (inactive)
GI50 (HCC 2998): 353 µM (inactive)
